From patent publication US20100113590A1, “ADAM INHIBITOR” (Shiseido Company, Ltd., priority 2007, published 2010)

Test system: ADAM
Experiment: Inhibition of PMA-induced TNF-α release from U937 cells (index of ADAM inhibition), hTNF-α ELISA
Type: cell-based, human
Conditions: for Inhibition rate (%): U937 cells, 30 min pretreatment, 10 nM PMA for 6 hours, released hTNF-α by ELISA; for suppressing effect on HB-EGF release: statement in words summarising the screening, suggests inhibition of ADAM activity
Procedure: For the ADAM inhibiting effect, the TNF-α which is cut out to be released from the membrane of the U937 cell derived from the human lymphoma through the action of ADAM was used as an index, and the inhibiting effect on the TNF-α release by the agents was assessed. A new ADAM inhibitor was explored by screening different compounds according to the present method.
The U937 cells derived from the human lymphoma were seeded to the 48-well plate adjusting the number of the cells to 1×10^5 cells/0.25 ml and cultured at 37° C. overnight. The medium which contained 5 μg/ml or 30 μg/ml of an ascorbic acid derivative was added and incubated at 37° C. for 30 min. to be pretreated. 10 nM PMA (phorbol ester: 12-O-tetradecanoylphorbol-acetate; Sigma P8139) was then added and cultured at 37° C. for 6 hours. After completion of the treatment, the supernatant of the culture was collected, centrifuged and the cell-free supernatant was cryopreserved at −20° C. The assay of the released hTNF-α was performed using the hTNF-α Duo-Set ELISA kit from R & D Ltd. Each supernatant of the culture was diluted 5-folds with the medium, then […] each was added to the 96-well plate and measured according to the protocol of R & D Ltd. The absorbance at 450-570 nm of each well was measured by the measurement kit and concentrations of the samples were obtained from the standard curve. The inhibition rates were calculated according to the following equation wherein A0 is the absorbance of 0% inhibiting control (the medium containing only PMA), A100 is the absorbance of 100% inhibiting control (only the medium) and AS is the absorbance of the sample.
The inhibition rate (%)=(A0−AS)/(A0−A100)×100

SMILES	Inhibition rate (%) (5 μg/mL)	Inhibition rate (%) (30 μg/mL)	suppressing effect on HB-EGF release
CCCCCCCCCCCCOC1=C(O)[C@@H]([C@@H](O)CO)OC1=O [2-O-dodecyl ascorbic acid]	18.25%	60.07%	high suppressing effect
CCCCCCCCCCCCCCCCCCOC1=C(O)[C@@H]([C@@H](O)CO)OC1=O [2-O-octadecyl ascorbic acid]	15.19%	82.70%	high suppressing effect
